Experimental findings from patent publication US10004730B2, “Small molecules targeting androgen receptor nuclear localization and/or level in prostate cancer” (University of Pittsburgh-Of the Commonwealth System of …, priority 2011, dated 2018) are described below.

Structures are written as SMILES.

For one series, the target named is T1, GFP-AR (Homo sapiens, UniProt P10275).
T1 construct: expressed in transfected cells; also PC3 and LNCaP (transient)
T1 sequence (P10275 1-920): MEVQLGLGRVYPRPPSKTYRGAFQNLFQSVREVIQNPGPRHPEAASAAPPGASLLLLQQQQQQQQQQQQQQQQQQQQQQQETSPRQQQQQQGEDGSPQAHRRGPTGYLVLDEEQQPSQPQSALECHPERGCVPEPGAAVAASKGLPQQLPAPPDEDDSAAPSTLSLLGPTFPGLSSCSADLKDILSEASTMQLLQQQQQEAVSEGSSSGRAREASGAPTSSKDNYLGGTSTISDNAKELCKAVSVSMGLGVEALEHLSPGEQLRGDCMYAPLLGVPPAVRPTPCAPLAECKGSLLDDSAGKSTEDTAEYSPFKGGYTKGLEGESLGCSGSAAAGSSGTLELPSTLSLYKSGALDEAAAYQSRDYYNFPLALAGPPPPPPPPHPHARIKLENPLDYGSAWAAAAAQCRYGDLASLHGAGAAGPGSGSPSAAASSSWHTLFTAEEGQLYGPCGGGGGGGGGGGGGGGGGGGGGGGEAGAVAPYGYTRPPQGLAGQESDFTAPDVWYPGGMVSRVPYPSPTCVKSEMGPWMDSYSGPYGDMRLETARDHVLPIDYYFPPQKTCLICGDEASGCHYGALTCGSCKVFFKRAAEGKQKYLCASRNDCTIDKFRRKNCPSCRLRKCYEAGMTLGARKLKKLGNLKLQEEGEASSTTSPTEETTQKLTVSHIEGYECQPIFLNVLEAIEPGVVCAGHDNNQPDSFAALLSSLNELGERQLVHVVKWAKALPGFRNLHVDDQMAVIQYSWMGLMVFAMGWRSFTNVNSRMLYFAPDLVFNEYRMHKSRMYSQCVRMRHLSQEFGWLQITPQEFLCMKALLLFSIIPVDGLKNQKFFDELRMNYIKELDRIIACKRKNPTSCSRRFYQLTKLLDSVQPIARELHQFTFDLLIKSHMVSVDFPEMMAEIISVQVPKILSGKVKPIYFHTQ
The experiment in a line: Localization of transiently transfected GFP-AR by fluorescence microscopy. The format is cell-based. As to conditions: transfected C4-2 cells, complete RPMI with 10% FBS, overnight treatment. The procedure: FIGS. 2A and 2B. Localization of GFP-AR in AR-negative PC3, androgen-sensitive LNCaP, and CRPC C4-2 cells. […] PC3, LNCaP, and C4-2 cells were transfected with GFP-AR and localization was assessed in ligand-free conditions or in the presence of mibolerone by fluorescence microscopy within 24 hours of transfection. The results in FIG. 2B are from five transfections for each cell line in the absence of androgen. At least 50 cells were counted after each transfection. Error bars represent ±SEM.
FIGS. 3A and 3B. […] FIG. 3A. […] Localization was assessed by fluorescence microscopy 4 hours after treatment. FIG. 3B.
FIGS. 6A, 6B, 6C and 6D. FIG. 6A. […] FIG. 6B. […] C4-2 cells were transfected with GFP-AR and subcellular localization of GFP-AR was determined after overnight treatment using fluorescent microscopy. FIG. 6C. Quantitative analysis of results in FIG. 6B. […] FIG. 6D. […] Endogenous AR was detected by immunofluorescent staining using AR antibody N-20 (Santa Cruz Biotechnology). Nuclei were stained with Hoechst.
A prerequisite for AR transcriptional activity is its nuclear localization. To determine whether the subcellular localization of AR was altered during the progression to castration-resistance, AR-negative PC3 prostate cancer cells, androgen-sensitive LNCaP cells and castration-resistant C4-2 cells were transfected with AR tagged to green fluorescent protein (GFP) and localization was assessed by fluorescence microscopy in hormone-free conditions.
Hsp90 plays an important role in ligand-induced AR nuclear translocation. […] To determine if the effect of hsp90 inhibition on endogenous AR in C4-2 cells was similar to its effect on transfected GFP-AR, immunofluorescence experiments were performed.

A short description of series [1]: Pilot toxicity experiment in mice. The class given is in vivo. As to conditions: all doses tested, highest 100 mg/kg; data not shown. The procedure: […]. […] A pilot experiment was also performed testing the toxicity of SID 3712502 in mice.
A further series relates to AR(1-665). The series can be described thus: PSA-luciferase reporter, AR(1-665) lacking LBD, PC3 cells. The format is cell-based. As to conditions: 10 μM, 24 hours. The protocol: FIGS. 13A-C. Effect of SID 3712502 on the expression of AR and PSA in 22Rv1 (FIG. 13A) cells. […] The cells in RPMI 1640 complete medium were treated with SID 3712502 or vehicle DMSO at the indicated concentrations (uM) for 48 h. The cells were then harvested in RIPA buffer for Western blot analysis using antibodies for AR, PSA, and GAPDH. GAPDH was included as a loading control. FIG. 13B. SID 3712502 inhibits AR transactivation of PSA-luciferase reporter. C4-2 cells were transfected with PSA6.1-Luc, GFP-AR, and pRL-CMV and then treated with indicated doses of SID 3712502 for 24 hours. FIG. 13C. SID 3712502 inhibits transactivation of PSA-luciferase reporter by AR(1-665), which lacks LBD. PC3 cells were transfected with GFP-NAR and PSA6.1 Luc overnight prior to treatment with 10 μM SID 3712502 (SID) or DMSO (C) for 24 hours. For luciferase assays, cells were lysed with passive lysis buffer (Promega) and both Firefly and Renilla luciferase activities were read using a Dual-Luciferase Reporter Assay kit (Promega) on a LmaxII384 luminometer (Molecular Devices). Firefly luciferase values were normalized to Renilla (pRL-CMV) or protein of cell lysates. Plotted values represent averaged normalized Firefly luciferase activities, each performed in triplicate, relative to DMSO control. One-way ANOVA was performed with a Bonferroni's Multiple Comparison posttest *** p<0.0001 (C). […]
For orientation: In a reporter assay the amount or activity of a reporter protein is the signal.

The next series deals with PC3 cells. The series can be described thus: BrdU incorporation, PC3. The class given is cell-based. As to conditions: PC3, up to 50 uM, 48 hrs. The procedure:
FIGS. 14A-F. Effect of SID 3712502 at indicated concentrations on BrdU incorporation in cultured AR-positive LNCaP (FIG. 14A), C4-2 (FIG. 14B), 22Rv1 (FIG. 14C), LAPC4 (FIG. 14D) cells, and AR-negative DU145 (FIG. 14E) and PC3 (FIG. 14F) cells. Cells were plated in 12-well plates at 2,500 cell per well in RPMI 1640 complete medium. After 24 hrs, the cells were treated with SID 3712502 at the indicated concentrations for 48 hrs and BrdU incorporation was assayed according to manufacturer's instructions (Invitrogen BrdU staining kit; catalog #: 93-3943). The percentage of BrdU-positive cells was determined and then normalized to generate relative BrdU index. Ctrl=DMSO control.

In the case of `Cc1cccc(N2CCN(C(=O)CSCc3c(C)noc3C)CC2)c1C` [SID 3712502, 2-[(3,5-dimethyl-1,2-oxazol-4-yl)methylsulfanyl]-1-[4-(2,3-dimethylphenyl)piperazin-1-yl]ethanone], the GFP-AR nuclear localization entry at GFP-AR was “effectively inhibited”. Also, the toxicity in mice result in series [1] is listed as “no identifiable effect”. Moreover, the “transactivation activity of AR(1-665) (PSA-luciferase)” value in the series with AR(1-665) was “can inhibit the transactivation activity”. Besides, the “proliferation (BrdU incorporation)” value with PC3 cells is given as “no detectable effect”.
